Laboratory results taken from patent US12569471B2, “Method of treatment of CNS disorders” (Supernus Pharmaceuticals, Inc., priority 2009, dated 2026).

Experiments:
[1] = molecular target: T1, Delta2(h) opioid receptor (Homo sapiens, UniProt P41143); assay: heterologous competition (displacement) assay, delta opioid receptor; format: binding; conditions: 10 μM mazindol; [3H] [D-Ala2, D-Leu5] enkephalin 0.5 nM; 120 min/22° C.
T1 construct: expressed in transfected cells; host or cells: CHO cell line
Experimental: (§1) A heterologous competition assay was used to determine the relative affinity of mazindol for opioid receptors. Briefly, recombinant μ-, κ- or δ-opioid receptors were expressed in a CHO cell line. The receptors were then saturated with a tritiated receptor-specific ligand at concentrations known to be saturating. Thereupon, 10 μM mazindol was added to the cells in the presence of non-specific ligand and incubated. In this way, mazindol was allowed to “compete” with the receptor-specific ligand, such that greater displacement (i.e., % inhibition) is indicative of greater binding strength of mazindol at a given receptor. “Specific binding” refers here to the difference in the binding of the ligand to the receptors in the presence or absence of an excess of the mazindol.

[2] = molecular target: T2, Kappa (rat) opioid receptor (Rattus norvegicus, UniProt P34975); assay: heterologous competition (displacement) assay, kappa opioid receptor; format: binding; conditions: 10 μM mazindol; [3H]U 69593 1 nM; 60 min/22° C.
T2 construct: expressed in transfected cells; host or cells: CHO cell line
Experimental: as §1

[3] = molecular target: T3, μ-opioid receptors in the guinea pig ileum (Cavia porcellus, UniProt A0ACM8Q262); assay: μ-opioid receptor bioassay, test for antagonist activity (DAMGO-induced decrease in twitch contraction amplitude); conditions: for antagonist activity: response to DAMGO (1.0E−07M) in presence of compound: mean, n=2
[4] = molecular target: T3, μ-opioid receptors in the guinea pig ileum; assay: μ-opioid receptor bioassay, test for agonist activity (twitch contraction amplitude); conditions: for agonist activity: decrease in twitch contraction amplitude / agonist activity: decrease in twitch contraction amplitude, +Naloxone: mean, n=2
[5] = molecular target: dopamine reuptake transporter (Homo sapiens, UniProt Q01959); conditions: background statement; cited from earlier work
human μ-opioid receptor = molecular target: T4, human μ-opioid receptor (Homo sapiens, UniProt P35372); assay: heterologous competition (displacement) assay and IC50 determination, μ-opioid receptor; format: binding; design: binding at the μ-opioid receptor (specific binding), 1st test / binding at the μ-opioid receptor (specific binding), 2nd Test / binding at the μ-opioid receptor (specific binding), Mean: unit not given here
T4 construct: expressed in transfected cells; host or cells: CHO cell line
Experimental: as §1
For this experiment, a range of mazindol concentrations was selected for the ligand blocking assay. The IC50 was determined using non-linear regression analysis of the competition curves using a Hill equation curve fitting (Y=D+[(A−D)/(1+(C/C50)nH)], where Y=specific binding, D=minimum specific binding, A=maximum specific binding, C=compound concentration, C50=IC50, and nH=slope factor). The inhibition constants Ki were calculated using Cheng Prusoff equation. Ki is defined as the concentration of the competing ligand (mazindol) that bound to half the binding sites at equilibrium in the absence of radioligand or other competitors.

[6] = molecular target: serotonergic reuptake transporter (Homo sapiens, UniProt P31645); conditions: background statement; cited from earlier work
H1 receptor = H1 receptor (Homo sapiens, UniProt P35367); conditions: background statement; cited from earlier work
[7] = molecular target: noradrenergic reuptake transporter (Homo sapiens, UniProt P23975); conditions: background statement; cited from earlier work

Compound: OC1(c2ccc(Cl)cc2)c2ccccc2C2=NCCN21 (stereo not shown) [mazindol, 5-(p-chloropheny)-2,5-dihydro-3H-imidazo[2,1-a] isoindol-5-ol]
- inhibition at 10 µM [1]: 14%
- % Inhib. [2]: 33%
- antagonist activity: response to DAMGO (1.0E−07M) in presence of compound ([3]; compound 1.0E−05 M): 105% of the control response to DAMGO
- antagonist activity: response to DAMGO (1.0E−07M) in presence of compound ([3]; compound 1.0E−06 M): 100% of the control response to DAMGO
- antagonist activity: response to DAMGO (1.0E−07M) in presence of compound ([3]; compound 1.0E−07 M): 100% of the control response to DAMGO
- antagonist activity: response to DAMGO (1.0E−07M) in presence of compound ([3]; compound 3.0E−05 M): 107% of the control response to DAMGO
- antagonist activity: response to DAMGO (1.0E−07M) in presence of compound ([3]; compound 3.0E−06 M): 102% of the control response to DAMGO
- antagonist activity: response to DAMGO (1.0E−07M) in presence of compound ([3]; compound 3.0E−07 M): 100% of the control response to DAMGO
- Antagonist activity IC50 value ([3]; guinea pig ileum): no antagonist effect
- concentrations causing a further decrease in twitch contraction amplitude beyond DAMGO ([3]; guinea pig ileum): higher than 1.0E-06 M
- effect on the DAMGO-induced decrease in twitch contraction amplitude ([3]; guinea pig ileum): did not reverse the DAMGO-induced decrease in twitch contraction amplitude
- agonist activity: decrease in twitch contraction amplitude ([4]; compound 1.0E−05 M): 94% of the control response to DAMGO
- agonist activity: decrease in twitch contraction amplitude ([4]; compound 1.0E−06 M): 25% of the control response to DAMGO
- agonist activity: decrease in twitch contraction amplitude ([4]; compound 1.0E−07 M): 1% of the control response to DAMGO
- agonist activity: decrease in twitch contraction amplitude, +Naloxone ([4]; compound 3.0E−05M + Naloxone (1.0E−07M)): 5% of the control response to DAMGO
- agonist activity: decrease in twitch contraction amplitude ([4]; compound 3.0E−05 M): 103% of the control response to DAMGO
- agonist activity: decrease in twitch contraction amplitude ([4]; compound 3.0E−06 M): 64% of the control response to DAMGO
- agonist activity: decrease in twitch contraction amplitude ([4]; compound 3.0E−07 M): 9% of the control response to DAMGO
- effect on twitch contraction amplitude ([4]; guinea pig ileum): concentration-dependent decrease in the twitch contraction amplitude
- nature of the binding (agonist or antagonist) at the μ-opioid receptors ([4]; guinea pig ileum): behaves as an agonist
- reversal of the agonist-like response by reference antagonist naloxone ([4]; guinea pig ileum): fully reversed by naloxone
- EC50 ([4]; read-out: Agonist activity EC50 value, guinea pig ileum, linear regression of concentration-response curve): 2000 nM
- binding activity at dopamine reuptake transporter [5]: specific inhibitory binding activity
- IC50 (human μ-opioid receptor): 690 nM
- Ki (human μ-opioid receptor): 280 nM
- inhibition at 10 µM (human μ-opioid receptor; 10 μM mazindol, [3H] Ala2-MePhe4-Gly5-Enkephalin 0.5 nM, 120 min/22° C.): 84%
- nH (slope factor) (human μ-opioid receptor; M (h) (MOP) (agonist site)): 0.8
- binding at the μ-opioid receptor (specific binding), 1st test (human μ-opioid receptor; mazindol 1.0E−04 M): 5.8
- binding at the μ-opioid receptor (specific binding), 2nd Test (human μ-opioid receptor; mazindol 1.0E−04 M): 7.4
- binding at the μ-opioid receptor (specific binding), Mean (human μ-opioid receptor; mazindol 1.0E−04 M): 6.6
- binding at the μ-opioid receptor (specific binding), 1st test (human μ-opioid receptor; mazindol 1.0E−05 M): 12.6
- binding at the μ-opioid receptor (specific binding), 2nd Test (human μ-opioid receptor; mazindol 1.0E−05 M): 13.0
- binding at the μ-opioid receptor (specific binding), Mean (human μ-opioid receptor; mazindol 1.0E−05 M): 12.8
- binding at the μ-opioid receptor (specific binding), 1st test (human μ-opioid receptor; mazindol 1.0E−06 M): 42.4
- binding at the μ-opioid receptor (specific binding), 2nd Test (human μ-opioid receptor; mazindol 1.0E−06 M): 41.7
- binding at the μ-opioid receptor (specific binding), Mean (human μ-opioid receptor; mazindol 1.0E−06 M): 42.0
- binding at the μ-opioid receptor (specific binding), 1st test (human μ-opioid receptor; mazindol 1.0E−07 M): 83.2
- binding at the μ-opioid receptor (specific binding), 2nd Test (human μ-opioid receptor; mazindol 1.0E−07 M): 83.2
- binding at the μ-opioid receptor (specific binding), Mean (human μ-opioid receptor; mazindol 1.0E−07 M): 83.2
- binding at the μ-opioid receptor (specific binding), 1st test (human μ-opioid receptor; mazindol 3.0E−05 M): 9.1
- binding at the μ-opioid receptor (specific binding), 2nd Test (human μ-opioid receptor; mazindol 3.0E−05 M): 7.6
- binding at the μ-opioid receptor (specific binding), Mean (human μ-opioid receptor; mazindol 3.0E−05 M): 8.3
- binding at the μ-opioid receptor (specific binding), 1st test (human μ-opioid receptor; mazindol 3.0E−06 M): 24.7
- binding at the μ-opioid receptor (specific binding), 2nd Test (human μ-opioid receptor; mazindol 3.0E−06 M): 26.4
- binding at the μ-opioid receptor (specific binding), Mean (human μ-opioid receptor; mazindol 3.0E−06 M): 25.5
- binding at the μ-opioid receptor (specific binding), 1st test (human μ-opioid receptor; mazindol 3.0E−07 M): 58.2
- binding at the μ-opioid receptor (specific binding), 2nd Test (human μ-opioid receptor; mazindol 3.0E−07 M): 60.9
- binding at the μ-opioid receptor (specific binding), Mean (human μ-opioid receptor; mazindol 3.0E−07 M): 59.5
- binding at the μ-opioid receptor (specific binding), 1st test (human μ-opioid receptor; mazindol 3.0E−08 M): 102.1
- binding at the μ-opioid receptor (specific binding), 2nd Test (human μ-opioid receptor; mazindol 3.0E−08 M): 97.5
- binding at the μ-opioid receptor (specific binding), Mean (human μ-opioid receptor; mazindol 3.0E−08 M): 99.8
- binding activity at serotonergic reuptake transporter [6]: specific inhibitory binding activity
- binding at the H1 receptor (H1 receptor): moderately potent binding
- binding activity at noradrenergic reuptake transporter [7]: specific inhibitory binding activity

Compound: C[C@@H](NC(=O)[C@@H](N)Cc1ccc(O)cc1)C(=O)NCC(=O)N(C)[C@@H](Cc1ccccc1)C(=O)NCCO [DAMGO]
- agonist activity: decrease in twitch contraction amplitude, +Naloxone ([4]; compound 1.0E−07M + Naloxone (1.0E−07M)): −10% of the control response to DAMGO
- agonist activity: decrease in twitch contraction amplitude ([4]; compound 1.0E−07 M): 104% of the control response to DAMGO
- agonist activity: decrease in twitch contraction amplitude ([4]; compound 1.0E−08 M): 62% of the control response to DAMGO
- agonist activity: decrease in twitch contraction amplitude ([4]; compound 1.0E−09 M): 14% of the control response to DAMGO
